In EP0490818B1, “6-CYCLOHEXYL-2'-0-METHYL-ADENOSINE HYDRATE AND USES THEREOF” (Novartis AG, priority 1990, dated 1992):
Like-named read-outs stand apart in the source and are kept apart here.

How the values were obtained:
[1] = target: T1, A2 receptor (Sus scrofa, UniProt K9IW67); assay: Affinity for adenosine receptors, displacement of 3H-NECA binding in striatal membranes (A2); design: species or system Pig
T1 construct: Pig striatal membranes were prepared as previously described; from tissue; host or cells: pig striatum (membranes)
Method: (§1) Pig striatal membranes were prepared as previously described by H. Bruns et al. in Molecular Pharmacology 29 (1986) pages 331-344. ^3H-NECA, a non-selective adenosine receptor agonist was used to label both A1 and A2 receptors. IC50 values were derived from the displacement curves by weighted non-linear least-square curve fitting to the Langmuir equation and pKD values calculated.

[2] = tested on: A1 receptor; conditions: ratio of A2 KD to A1 KD, pig striatal membranes
Method: as §1

[3] = target: T2, A1 receptor (Sus scrofa, UniProt I3LEN5); assay: biochemical
T2 sequence (I3LEN5 1-326): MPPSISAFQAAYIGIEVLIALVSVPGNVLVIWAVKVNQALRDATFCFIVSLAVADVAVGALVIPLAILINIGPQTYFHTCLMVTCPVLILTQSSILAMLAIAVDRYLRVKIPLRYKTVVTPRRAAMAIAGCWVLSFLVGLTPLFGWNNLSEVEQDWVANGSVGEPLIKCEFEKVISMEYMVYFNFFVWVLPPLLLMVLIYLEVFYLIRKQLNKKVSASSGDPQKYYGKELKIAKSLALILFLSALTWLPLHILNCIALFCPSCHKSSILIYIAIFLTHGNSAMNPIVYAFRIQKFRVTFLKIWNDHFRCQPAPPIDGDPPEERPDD
Method: as §1

[4] = Plasma free fatty acids and triglycerides in the monkey (dyslipidemias with elevated serum triglycerides); type: in vivo; conditions: Rhesus monkey
From the text: Several studies have shown a positive correlation between serum triglyceride levels and the risk for coronary heart disease (CHD) (Grundy, in Cholesterol and Atherosclerosis: Diagnosis and Treatment, Lippincott, Philadelphia (1990)). The value of reducing elevated triglyceride levels as an approach to reducing the risk of CHD emerged from the Helsinki Heart Study where, following treatment with gemfibrozil, the greatest reduction in serious coronary events occured in Type IIB hyperlipidemic patients in whom both LDL-cholesterol and total serum triglycerides were elevated.

T1 sequence (K9IW67 1-409): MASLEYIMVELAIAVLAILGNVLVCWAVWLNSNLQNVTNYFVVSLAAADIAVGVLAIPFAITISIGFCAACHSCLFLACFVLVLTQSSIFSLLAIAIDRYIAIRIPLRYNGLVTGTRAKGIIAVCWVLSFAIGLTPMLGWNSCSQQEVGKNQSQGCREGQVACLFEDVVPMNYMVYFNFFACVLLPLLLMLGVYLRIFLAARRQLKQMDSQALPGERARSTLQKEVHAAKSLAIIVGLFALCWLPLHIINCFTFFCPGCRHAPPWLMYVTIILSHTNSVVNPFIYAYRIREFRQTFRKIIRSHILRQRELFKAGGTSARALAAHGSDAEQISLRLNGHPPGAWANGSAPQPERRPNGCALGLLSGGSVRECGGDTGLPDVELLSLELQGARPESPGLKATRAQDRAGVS

| Kd ([1]; Pig striatal membranes, 3H-NECA label, mean ± spread, read-out: A2 (KD;nM)) [nM] | Compound | A1:A2 selectivity [2] | Kd [3] [nM] | Kd [1] [nM] | plasma free fatty acids [4] | plasma triglycerides [4] |
| --- | --- | --- | --- | --- | --- | --- |
| 269 ± 70 | Nc1nc(Nc2ccccc2)nc2c1ncn2[C@@H]1O[C@H](CO)[C@@H](O)[C@H]1O [CV 1808, 2-Phenylaminoadenosine, reference compound] | 0.1 | 2460 ± 757 |  |  |  |
|  | CO[C@@H]1[C@H](O)[C@@H](CO)O[C@H]1n1cnc2c(NC3CCCCC3)ncnc21 [Compound No. 7 1.5 H2O, 6-cyclohexyl-2'-O-methyl-adenosine 1.5 hydrate] | 1090 | 23 ± 2 | 24500 ± 5160 | substantial and long-lasting falls | substantial and long-lasting falls |
|  | CCNC(=O)[C@H]1O[C@@H](n2cnc3c(N)nc(NCCc4ccc(CCC(=O)O)cc4)nc32)[C@H](O)[C@@H]1O [CGS 21680, 2-[p-(2-Carboxyethyl)phenethylamino]-5'-N-ethyl carboxamido-adenosine] |  | 4360 ± 1080 |  |  |  |
